Laboratory results from US8883801B2, “Substituted pyrazolo[1,5-a]pyrimidines as mTOR inhibitors” (Merck Sharp & Dohme Corp., priority 2010, dated 2014).

How the values were obtained:
human mTOR enzyme = human mTOR enzyme (Homo sapiens, UniProt P42345); assay: HTRF mTOR enzyme (kinase) assay; format: biochemical; settings: rated class; 5 μM ATP, 0.2 μM GST-S6K; read-out: hMTOR IC50
[1] = tested on: mTORC2 activity: phosphorylated AKT Ser473 (pAKT S473) in PC3 cells; assay: mTOR target engagement assay, immunofluorescent cell-based, mTORC2 readout; settings: Homo sapiens, PC-3, 1.5 h, rated class, 90 min treatment
In short: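 Read-out is immunofluorescence intensity, normalized to DMSO-only wells and fitted to a sigmoidal Hill equation for IC50. The mTORC1 arm probes phospho-4E-BP1 Thr37/46 and the mTORC2 arm phospho-AKT Ser473.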

[2] = tested on: mTORC1 activity: phosphorylated 4E-BP1 Thr37/46 (p4E-BP1 Thr37/46) in PC3 cells; assay: mTOR target engagement assay, immunofluorescent cell-based, mTORC1 readout; settings: Homo sapiens, PC-3, 1.5 h, rated class, 90 min treatment, read-out: P4EBP1 IC50
Description: The target engagement of mTOR kinase inhibitors was evaluated using an immunofluorescent cell-based assay. In this assay, inhibition of mTORC1 activity was measured by the reduction in the level of phosphorylated 4E-BP1Thr37/46 (p4E-BP1 Thr37/46), and inhibition of mTORC2 activity was measured by the reduction of phosphorylated AKTSer473 (pAKT S473).
PC3 cells (prostate tumor cell-line that contains a mutation in the tumor suppressor PTEN, that promotes the phosphorylation and activation of AKT and 4E-BP1) were used in the immunofluorescence assay. PC3 cells were seeded on 384 well plates (black clear bottom, Matrix #4332) overnight. PC3 cells were then treated with 40 μl of the serially diluted test compounds (in 5% fetal bovine serum, F12 medium containing 0.25% DMSO) for ninety minutes at 37° C. The test compound solution was removed, and the plates were washed gently two times with 25 μl phosphate buffered saline (PBS). The cells were fixed by adding 25 μl of Prefer reagent (from Anatech LTD, Cat#414, a glyoxal fixative for fixing proteins within a cell) for sixty minutes followed by three washes with PBS. 5% Goat serum in PBS/0.3% Triton was used to block non-specific binding (60 minutes).
The primary antibodies targeting pAKT S473 and p4E-BP1 Thr37/46 were diluted into PBS/0.3% Triton and incubated with the cells overnight at 4° C. The antibodies targeting pAKTS473 (Cat#4085, Cell signaling) and p4E-BP1 Thr37/46 (Cat#2855, Cell signaling) were used at a 1:100 dilution. Plates were washed three times with PBS/0.1% Tween 20 before adding the secondary antibody at a 1:200 dilution. (goat anti-rabbit containing a fluorescent label, Alexa Fluor 488, Cat#A11008, Invitrogen) in PBS/0.3% Triton for 60 minutes.
Finally, the plates were washed three times with PBS/0.1% Tween 20 and the fluorescent intensity was read using an Analyst HT from Molecular Devices. The fluorescent intensity values from the serially diluted compound treatment group were analyzed using the Xlfit 4 program ([…]) (Formula 205: Y=Bottom+(Top-Bottom)/(1+(IC50/X)^Hillslope) to generate the IC50 value. Where Top is the maximum signal without Compound (+DMSO only) and Bottom represents maximum inhibition. Y is the fluorescence at some compound concentration. The control used to determine the fluorescent intensities for 100% pAKT S473 or 100% phosphorylated p4E-BP1 Thr37/46 were measured from untreated wells that contained only DMSO, instead of test compound.

Chain of human mTOR enzyme (P42345 1360-2549 limits assumed): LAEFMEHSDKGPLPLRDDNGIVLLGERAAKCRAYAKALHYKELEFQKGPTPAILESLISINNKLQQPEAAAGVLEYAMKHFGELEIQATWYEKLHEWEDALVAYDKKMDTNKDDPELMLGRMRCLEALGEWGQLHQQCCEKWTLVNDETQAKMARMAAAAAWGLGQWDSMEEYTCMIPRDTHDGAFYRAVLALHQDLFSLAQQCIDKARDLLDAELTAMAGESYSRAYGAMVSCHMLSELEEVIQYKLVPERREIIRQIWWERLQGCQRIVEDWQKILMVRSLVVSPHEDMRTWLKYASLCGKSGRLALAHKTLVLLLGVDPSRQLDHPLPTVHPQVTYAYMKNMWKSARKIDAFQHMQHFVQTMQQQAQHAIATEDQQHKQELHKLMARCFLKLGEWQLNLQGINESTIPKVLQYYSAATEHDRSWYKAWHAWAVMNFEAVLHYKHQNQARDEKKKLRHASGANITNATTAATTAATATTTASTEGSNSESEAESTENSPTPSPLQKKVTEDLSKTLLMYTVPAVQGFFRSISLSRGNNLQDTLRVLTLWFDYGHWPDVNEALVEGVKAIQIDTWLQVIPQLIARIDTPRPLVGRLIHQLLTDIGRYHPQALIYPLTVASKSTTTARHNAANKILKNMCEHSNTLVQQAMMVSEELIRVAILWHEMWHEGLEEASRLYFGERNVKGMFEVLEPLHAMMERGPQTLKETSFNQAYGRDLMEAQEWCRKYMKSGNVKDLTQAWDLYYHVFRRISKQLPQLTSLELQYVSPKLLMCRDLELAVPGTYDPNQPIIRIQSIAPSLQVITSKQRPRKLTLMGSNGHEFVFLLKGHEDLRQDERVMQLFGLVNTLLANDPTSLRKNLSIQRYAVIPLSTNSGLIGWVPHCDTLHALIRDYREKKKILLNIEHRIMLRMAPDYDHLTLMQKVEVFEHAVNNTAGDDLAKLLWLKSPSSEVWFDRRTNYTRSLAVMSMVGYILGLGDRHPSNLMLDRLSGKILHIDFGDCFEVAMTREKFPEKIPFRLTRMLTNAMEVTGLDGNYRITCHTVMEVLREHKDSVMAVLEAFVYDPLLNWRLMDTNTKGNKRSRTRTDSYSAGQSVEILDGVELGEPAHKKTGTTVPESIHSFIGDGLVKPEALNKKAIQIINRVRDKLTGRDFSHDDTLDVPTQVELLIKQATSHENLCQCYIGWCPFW

Structure (SMILES)	IC50 (human mTOR enzyme) [nM]	IC50 [1] [nM]	IC50 [2] [nM]
CO[C@]1(C(=O)O)CC[C@H](c2nc3c(-c4cnn(-c5ccccc5)c4)cnn3c(N)c2Br)CC1 [Compound 31, (1S,4S)-4-(7-amino-6-bromo-3-(1-phenyl-1H-pyrazol-4-yl)pyrazolo[1,5-a]pyrimidin-5-yl)-1-methoxycyclohexane-carboxylic acid]	1 to 100	1 to 100	100 to 1000
COCCO[C@]1(C(N)=O)CC[C@@H](c2nc3c(-c4ccc(-c5ncc[nH]5)nc4)cnn3c(N)c2S(C)(=O)=O)CC1 [Compound 116]	1 to 100	100 to 1000	1 to 100
COCCO[C@]1(C(=O)O)CC[C@@H](c2nc3c(-c4ccc(-c5ccn(C)n5)nc4)cnn3c(N)c2S(C)(=O)=O)CC1 [Compound 42, (1R,4R)-4-(7-amino-3-(6-(1-methyl-1H-pyrazol-3-yl)pyridin-3-yl)-6-(methylsulfonyl)-pyrazolo[1,5-a]-pyrimidin-5-yl)-1-(2-methoxyethoxy)-cyclohexanecarboxylic acid]	1 to 100	2000 to 5000	5000 to 15000
CC(=O)c1c(C2CCC(CO)(C(=O)O)CC2)nc2c(-c3ccc(-c4ccccc4)nc3)cnn2c1N (stereo not drawn) [Compound 133, 4-(6-acetyl-7-amino-3-(6-phenylpyridin-3-yl)pyrazolo[1,5-a]pyrimidin-5-yl)-1-(hydroxymethyl)cyclohexanecarboxylic acid]	1 to 100	100 to 1000	100 to 1000
COCCO[C@]1(C(N)=O)CC[C@@H](c2nc3c(-c4ccc(-c5ncc[nH]5)nc4)cnn3c(N)c2C(C)=O)CC1 [Compound 112, (1R,4R)-4-(3-(6-(1H-imidazol-2-yl)pyridin-3-yl)-6-acetyl-7-aminopyrazolo[1,5-a]pyrimidin-5-yl)-1-(2-methoxyethoxy)cyclohexanecarboxamide]	1 to 100	1 to 100	1 to 100
COCCO[C@]1(C(=O)n2ccc(=O)[nH]2)CC[C@@H](c2nc3c(-c4cnn(-c5ccccc5)c4)cnn3c(N)c2S(C)(=O)=O)CC1 [Compound 94, 1-((1R,4R)-4-(7-amino-6-(methylsulfonyl)-3-(1-phenyl-1H-pyrazol-4-yl)pyrazolo[1,5-a]pyrimidin-5-yl)-1-(2-methoxyethoxy)-cyclohexanecarbonyl)-1H-pyrazol-3(2H)-one]	1 to 100	1 to 100	100 to 1000
COCCNC(=O)[C@]1(OCCOC)CC[C@H](c2nc3c(-c4cnn(-c5ccccc5)c4)cnn3c(N)c2S(C)(=O)=O)CC1 [Compound 93, (1R,4R)-4-(7-amino-6-(methylsulfonyl)-3-(1-phenyl-1H-pyrazol-4-yl)pyrazolo[1,5-a]pyrimidin-5-yl)-1-(2-methoxyethoxy)-N-(2-methoxyethyl)-cyclohexane-carboxamide]	1 to 100	100 to 1000	1000 to 2000
CNC(=O)[C@]1(OCCOC)CC[C@H](c2nc3c(-c4cnn(-c5ccccc5)c4)cnn3c(N)c2S(C)(=O)=O)CC1 [Compound 90, (1R,4R)-4-(7-amino-6-(methylsulfonyl)-3-(1-phenyl-1H-pyrazol-4-yl)pyrazolo[1,5-a]pyrimidin-5-yl)-1-(2-methoxyethoxy)-N-methylcyclohexane-carboxamide]	1 to 100	100 to 1000	1000 to 2000
CC(=O)c1c(N)n2ncc(-c3ccc(-c4ccccc4)nc3)c2nc1[C@H]1CC[C@](O)(CO)CC1 [Compound 140, 1-(7-amino-5-((1S,4S)-4-hydroxy-4-(hydroxymethyl)cyclohexyl)-3-(6-phenylpyridin-3-yl)pyrazolo[1,5-a]pyrimidin-6-yl)ethanone]	1 to 100	1 to 100	100 to 1000
COCCO[C@]1(C(=O)NO)CC[C@@H](c2nc3c(-c4cnn(-c5ccccc5)c4)cnn3c(N)c2S(C)(=O)=O)CC1 [Compound 88, (1R,4R)-4-(7-amino-6-(methylsulfonyl)-3-(1-phenyl-1H-pyrazol-4-yl)pyrazolo[1,5-a]pyrimidin-5-yl)-N-hydroxy-1-(2-methoxyethoxy)cyclohexanecarboxamide]	1 to 100	1 to 100	1 to 100
CO[C@]1(C(=O)O)CC[C@@H](c2nc3c(-c4ccc(-c5ccccc5)nc4)cnn3c(N)c2C(C)=O)CC1 [Compound 35, (1R,4R)-4-(6-acetyl-7-amino-3-(6-phenylpyridin-3-yl)pyrazolo[1,5-a]pyrimidin-5-yl)-1-methoxycyclohexane-carboxylic acid]	1 to 100	1 to 100	100 to 1000
COCCO[C@]1(C(=O)c2nnc[nH]2)CC[C@@H](c2cc(N)n3ncc(-c4ccc(-c5ccccc5)nc4)c3n2)CC1 [Compound 126, ((1R,4R)-4-(7-amino-3-(6-phenylpyridin-3-yl)pyrazolo[1,5-a]pyrimidin-5-yl)-1-(2-methoxyethoxy)cyclohexyl)(4H-1,2,4-triazol-3-yl)methanone]	1 to 100	100 to 1000	1000 to 2000
COCCO[C@]1(C(=O)N(C)C)CC[C@@H](c2nc3c(-c4cnn(-c5ccccc5)c4)cnn3c(N)c2S(C)(=O)=O)CC1 [Compound 91, (1R,4R)-4-(7-amino-6-(methylsulfonyl)-3-(1-phenyl-1H-pyrazol-4-yl)pyrazolo[1,5-a]pyrimidin-5-yl)-1-(2-methoxyethoxy)-N,N-dimethylcyclohexane-carboxamide]	1 to 100	100 to 1000	1000 to 2000
COCCO[C@]1(C(=O)O)CC[C@@H](c2nc3c(-c4cnn(-c5ccccc5)c4)cnn3c(N)c2C#N)CC1 [Compound 69, (1R,4R)-4-(7-amino-6-cyano-3-(1-phenyl-1H-pyrazol-4-yl)pyrazolo[1,5-a]pyrimidin-5-yl)-1-(2-methoxyethoxy)cyclohexanecarboxylic acid]	1 to 100	1 to 100	1 to 100
COCCO[C@]1(C(=O)NO)CC[C@H](c2nc3c(-c4ccc(-c5ncc[nH]5)nc4)cnn3c(N)c2C(C)=O)CC1 [Compound 114]	1 to 100	100 to 1000	100 to 1000
COCCO[C@]1(C(=O)NOC)CC[C@@H](c2nc3c(-c4cnn(-c5ccccc5)c4)cnn3c(N)c2S(C)(=O)=O)CC1 [Compound 89, (1R,4R)-4-(7-amino-6-(methylsulfonyl)-3-(1-phenyl-1H-pyrazol-4-yl)pyrazolo[1,5-a]pyrimidin-5-yl)-N-methoxy-1-(2-methoxyethoxy)-cyclohexane-carboxamide]	1 to 100	1 to 100	1 to 100
COCCO[C@]1(C(=O)O)CC[C@H](c2nc3c(-c4cnn(-c5ccccc5)c4)cnn3c(N)c2S(C)(=O)=O)CC1 [Compound 41, (1S,4S)-4-(7-amino-6-(methylsulfonyl)-3-(1-phenyl-1H-pyrazol-4-yl)pyrazolo[1,5-a]pyrimidin-5-yl)-1-(2-methoxyethoxy)-cyclohexanecarboxylic acid]	1 to 100	5000 to 15000	5000 to 15000
COCCO[C@]1(C(=O)O)CC[C@@H](c2nc3c(-c4cnn(-c5ccc(F)cc5)c4)cnn3c(N)c2S(C)(=O)=O)CC1 [Compound 43, (1R,4R)-4-(7-amino-3-(1-(4-fluorophenyl)-1H-pyrazol-4-yl)-6-(methylsulfonyl)-pyrazolo[1,5-a]-pyrimidin-5-yl)-1-(2-methoxyethoxy)-cyclohexanecarboxylic acid]	1 to 100	100 to 1000	100 to 1000
